Read-outs that look alike come from different tables or passages of the source.
Target: T1, NTCP (Homo sapiens, UniProt Q14973)
T1 sequence (Q14973 1-349): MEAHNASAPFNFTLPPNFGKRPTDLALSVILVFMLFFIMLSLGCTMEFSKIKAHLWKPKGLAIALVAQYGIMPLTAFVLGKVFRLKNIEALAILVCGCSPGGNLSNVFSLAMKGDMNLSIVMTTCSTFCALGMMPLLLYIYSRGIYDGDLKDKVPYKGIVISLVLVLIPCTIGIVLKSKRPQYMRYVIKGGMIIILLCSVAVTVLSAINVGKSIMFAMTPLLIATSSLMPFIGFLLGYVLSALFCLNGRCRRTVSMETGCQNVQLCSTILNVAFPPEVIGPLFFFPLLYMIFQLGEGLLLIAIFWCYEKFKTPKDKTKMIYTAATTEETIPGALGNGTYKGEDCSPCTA
Assay: [3H]-TCA uptake assay (NTCP inhibition)
Assay type: cell-based
Summary of the method: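 PTH and HepG2-NTCP cells kept 24 h in PMM to induce NTCP, then exposed 2 h to test compounds or DMSO. Uptake of 1 μM [3H]-taurocholate in Na+ Ringer's buffer (145 mM Na) ran 15 min at 37° C. Cells washed, lysed in 1% Triton X-100, and radioactivity counted by liquid scintillation.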

[1] = IC50, given as a range, marked * (asterisk not explained)
[2] = given as a range, assay not given

| SMILES | IC50 [1] | IC50 [2] | other results |
| --- | --- | --- | --- |
| CCC1NC(=O)C(C2OC(SCc3c(Cl)cccc3Cl)CC2C)N(C)C(=O)C(C(C)C)N(C)C(=O)C(CC(C)C)N(C)C(=O)C(CC(C)C)N(C)C(=O)C(C)NC(=O)C(C)NC(=O)C(CC(C)C)N(C)C(=O)C(C(C)C)NC(=O)C(CC(C)C)N(C)C(=O)CN(C)C1=O (centres unmarked) [Compound 90A-s] | 1000 to 100000 nM |  |  |
| CCC1NC(=O)C(C2OC(Oc3cccc(OCCc4ccccc4)c3)CC2C)N(C)C(=O)C(C(C)C)N(C)C(=O)C(CC(C)C)N(C)C(=O)C(CC(C)C)N(C)C(=O)C(C)NC(=O)C(C)NC(=O)C(CC(C)C)N(C)C(=O)C(C(C)C)NC(=O)C(CC(C)C)N(C)C(=O)CN(C)C1=O (centres unmarked) [Compound 35A-o] | 1000 to 100000 nM |  |  |
| CCC1NC(=O)C(C2OC(Sc3ccc(OCc4ccccc4)cc3)CC2C)N(C)C(=O)C(C(C)C)N(C)C(=O)C(CC(C)C)N(C)C(=O)C(CC(C)C)N(C)C(=O)C(C)NC(=O)C(C)NC(=O)C(CC(C)C)N(C)C(=O)C(C(C)C)NC(=O)C(CC(C)C)N(C)C(=O)CN(C)C1=O [Compound 57A, [2-((2R,3R)-5-(4-(benzyloxy)phenylthio)-3-methyltetrahydrofuran-2-yl)-2-(methylamino)acetic acid]^1-cyclosporin A] |  | 1 to 1000 nM |  |
| CCC1NC(=O)C(C2OC(Sc3cccc(OCc4ccccc4F)c3)CC2C)N(C)C(=O)C(C(C)C)N(C)C(=O)C(CC(C)C)N(C)C(=O)C(CC(C)C)N(C)C(=O)C(C)NC(=O)C(C)NC(=O)C(CC(C)C)N(C)C(=O)C(C(C)C)NC(=O)C(CC(C)C)N(C)C(=O)CN(C)C1=O [Compound 19A, [2-((2R,3R)-5-(3-(2-fluorobenzyloxy)phenylthio)-3-methyltetrahydrofuran-2-yl)-2-(methylamino)acetic acid]^1-cyclosporin A] |  | 1 to 1000 nM |  |
| CCC1NC(=O)C(C2OC(SCc3cccc(Cl)c3OC)CC2C)N(C)C(=O)C(C(C)C)N(C)C(=O)C(CC(C)C)N(C)C(=O)C(CC(C)C)N(C)C(=O)C(C)NC(=O)C(C)NC(=O)C(CC(C)C)N(C)C(=O)C(C(C)C)NC(=O)C(CC(C)C)N(C)C(=O)CN(C)C1=O (centres unmarked) [Compound 88A-s] | 1000 to 100000 nM |  |  |
| CCC1NC(=O)C(C2OC(OCc3ccccc3Cl)CC2C)N(C)C(=O)C(C(C)C)N(C)C(=O)C(CC(C)C)N(C)C(=O)C(CC(C)C)N(C)C(=O)C(C)NC(=O)C(C)NC(=O)C(CC(C)C)N(C)C(=O)C(C(C)C)NC(=O)C(CC(C)C)N(C)C(=O)CN(C)C1=O [Compound 84A, [2-((2R,3R)-5-(2-chlorobenzyloxy)-3-methyltetrahydrofuran-2-yl)-2-(methylamino)acetic acid]^1-cyclosporin A] |  | 1 to 1000 nM |  |
| CCC1NC(=O)C(C2OC(OCc3cccc(S(=O)(=O)OCC(C)C)c3)CC2C)N(C)C(=O)C(C(C)C)N(C)C(=O)C(CC(C)C)N(C)C(=O)C(CC(C)C)N(C)C(=O)C(C)NC(=O)C(C)NC(=O)C(CC(C)C)N(C)C(=O)C(C(C)C)NC(=O)C(CC(C)C)N(C)C(=O)CN(C)C1=O [Compound 75A, [2-((2R,3R)-5-(3-(isobutoxysulfonyl)benzyloxy)-3-methyltetrahydrofuran-2-yl)-2-(methylamino)acetic acid]^1-cyclosporin A] |  | 1 to 1000 nM |  |
| CCC1NC(=O)C(C2OC(OCc3ccc(Cl)cc3Cl)CC2C)N(C)C(=O)C(C(C)C)N(C)C(=O)C(CC(C)C)N(C)C(=O)C(CC(C)C)N(C)C(=O)C(C)NC(=O)C(C)NC(=O)C(CC(C)C)N(C)C(=O)C(C(C)C)NC(=O)C(CC(C)C)N(C)C(=O)CN(C)C1=O (single isomer, unassigned) [Compound 89B] |  | 1 to 1000 nM |  |
| CCC1NC(=O)C(C2OC(Oc3cccc(OCc4ccc(F)cc4Cl)c3)CC2C)N(C)C(=O)C(C(C)C)N(C)C(=O)C(CC(C)C)N(C)C(=O)C(CC(C)C)N(C)C(=O)C(C)NC(=O)C(C)NC(=O)C(CC(C)C)N(C)C(=O)C(C(C)C)NC(=O)C(CC(C)C)N(C)C(=O)CN(C)C1=O (centres unmarked) [Compound 23A-o] |  |  | IC50 (given as a range, marked * (asterisk not explained)): 1000 to 100000 nM |
| CCC1NC(=O)C(C2OC(OC(C)c3cc(Cl)cc(Cl)c3)CC2C)N(C)C(=O)C(C(C)C)N(C)C(=O)C(CC(C)C)N(C)C(=O)C(CC(C)C)N(C)C(=O)C(C)NC(=O)C(C)NC(=O)C(CC(C)C)N(C)C(=O)C(C(C)C)NC(=O)C(CC(C)C)N(C)C(=O)CN(C)C1=O [Compound 92A, [2-((2R,3R)-5-((S)-1-(3,5-dichlorophenyl)ethoxy)-3-methyltetrahydrofuran-2-yl)-2-(methylamino)acetic acid]^1-cyclosporin A] |  | 1 to 1000 nM |  |
| CCC1NC(=O)C(C2OC(Oc3cccc(NCc4ccccc4)c3)CC2C)N(C)C(=O)C(C(C)C)N(C)C(=O)C(CC(C)C)N(C)C(=O)C(CC(C)C)N(C)C(=O)C(C)NC(=O)C(C)NC(=O)C(CC(C)C)N(C)C(=O)C(C(C)C)NC(=O)C(CC(C)C)N(C)C(=O)CN(C)C1=O (centres unmarked) [Compound 48A-o] | 1000 to 100000 nM |  |  |
| CCC1NC(=O)C(C2OC(Oc3ccc(OCc4ccccc4)cc3)CC2C)N(C)C(=O)C(C(C)C)N(C)C(=O)C(CC(C)C)N(C)C(=O)C(CC(C)C)N(C)C(=O)C(C)NC(=O)C(C)NC(=O)C(CC(C)C)N(C)C(=O)C(C(C)C)NC(=O)C(CC(C)C)N(C)C(=O)CN(C)C1=O (centres unmarked) [Compound 57A-o] | 1000 to 100000 nM |  |  |
| CCC1NC(=O)C(C2OC(OCc3ccccc3)CC2C)N(C)C(=O)C(C(C)C)N(C)C(=O)C(CC(C)C)N(C)C(=O)C(CC(C)C)N(C)C(=O)C(C)NC(=O)C(C)NC(=O)C(CC(C)C)N(C)C(=O)C(C(C)C)NC(=O)C(CC(C)C)N(C)C(=O)CN(C)C1=O [Compound 74A, [2-((2R,3R)-5-(benzyloxy)-3-methyltetrahydrofuran-2-yl)-2-(methylamino)acetic acid]^1-cyclosporin A] |  | 1 to 1000 nM |  |
| CCC1NC(=O)C(C2OC(Oc3ccc4ccccc4c3)CC2C)N(C)C(=O)C(C(C)C)N(C)C(=O)C(CC(C)C)N(C)C(=O)C(CC(C)C)N(C)C(=O)C(C)NC(=O)C(C)NC(=O)C(CC(C)C)N(C)C(=O)C(C(C)C)NC(=O)C(CC(C)C)N(C)C(=O)CN(C)C1=O (centres unmarked) [Compound 62-o] | 1000 to 100000 nM |  |  |
| CCC1NC(=O)C(C2OC(SCc3ccccc3)CC2C)N(C)C(=O)C(C(C)C)N(C)C(=O)C(CC(C)C)N(C)C(=O)C(CC(C)C)N(C)C(=O)C(C)NC(=O)C(C)NC(=O)C(CC(C)C)N(C)C(=O)C(C(C)C)NC(=O)C(CC(C)C)N(C)C(=O)CN(C)C1=O (centres unmarked) [Compound 74A-s] | 1000 to 100000 nM |  |  |
| CCOc1ccc(OC2CC(C)C(C3C(=O)NC(CC)C(=O)N(C)CC(=O)N(C)C(CC(C)C)C(=O)NC(C(C)C)C(=O)N(C)C(CC(C)C)C(=O)NC(C)C(=O)NC(C)C(=O)N(C)C(CC(C)C)C(=O)N(C)C(CC(C)C)C(=O)N(C)C(C(C)C)C(=O)N3C)O2)cc1 (centres unmarked) [Compound 27A-o] | 1000 to 100000 nM |  |  |
| CC[C@@H]1NC(=O)[C@H]([C@@H]2OC(OCc3cc(Cl)cc(Cl)c3)C[C@H]2C)N(C)C(=O)[C@H](C(C)C)N(C)C(=O)[C@H](CC(C)C)N(C)C(=O)[C@H](CC(C)C)N(C)C(=O)[C@@H](C)NC(=O)[C@H](C)NC(=O)[C@H](CC(C)C)N(C)C(=O)[C@H](C(C)C)NC(=O)[C@H](CC(C)C)N(C)C(=O)CN(C)C1=O (stereo partly drawn) [Compound 91A, [2-((2R,3R)-5-(3,5-dichlorobenzyloxy)-3-methyltetrahydrofuran-2-yl)-2-(methylamino)acetic acid]^1-cyclosporin A] |  |  | IC50 (given as a range, assay not given, read-out: IC50): 1 to 1000 nM |
| CCC1NC(=O)C(C2OC(OCc3ccc(N4CCOCC4)cc3)CC2C)N(C)C(=O)C(C(C)C)N(C)C(=O)C(CC(C)C)N(C)C(=O)C(CC(C)C)N(C)C(=O)C(C)NC(=O)C(C)NC(=O)C(CC(C)C)N(C)C(=O)C(C(C)C)NC(=O)C(CC(C)C)N(C)C(=O)CN(C)C1=O [99A + B(1:1.1), [2-((2R,3R)-3-methyl-5-(4-morpholinobenzyloxy)tetrahydrofuran-2-yl)-2-(methylamino)acetic acid]^1-cyclosporin A] |  | 1 to 1000 nM |  |
| CCC1NC(=O)C(C2OC(Sc3cccc(OCc4ccn(C)c(=O)c4)c3)CC2C)N(C)C(=O)C(C(C)C)N(C)C(=O)C(CC(C)C)N(C)C(=O)C(CC(C)C)N(C)C(=O)C(C)NC(=O)C(C)NC(=O)C(CC(C)C)N(C)C(=O)C(C(C)C)NC(=O)C(CC(C)C)N(C)C(=O)CN(C)C1=O [Compound 16A, [2-((2R,3R)-3-methyl-5-(3-((1-methyl-2-oxo-1,2-dihydropyridin-4-yl)methoxy)phenylthio)tetrahydrofuran-2-yl)-2-(methylamino)acetic acid]^1-cyclosporin A] |  | 1000 to 10000 nM |  |
| CCC1NC(=O)C(C2OC(Sc3cccc(OCC4CCN(C)CC4)c3)CC2C)N(C)C(=O)C(C(C)C)N(C)C(=O)C(CC(C)C)N(C)C(=O)C(CC(C)C)N(C)C(=O)C(C)NC(=O)C(C)NC(=O)C(CC(C)C)N(C)C(=O)C(C(C)C)NC(=O)C(CC(C)C)N(C)C(=O)CN(C)C1=O (centres unmarked) [Compound 72] | 1000 to 100000 nM |  |  |
| CCC1NC(=O)C(C2OC(Oc3ccc(Cl)c(OC)c3)CC2C)N(C)C(=O)C(C(C)C)N(C)C(=O)C(CC(C)C)N(C)C(=O)C(CC(C)C)N(C)C(=O)C(C)NC(=O)C(C)NC(=O)C(CC(C)C)N(C)C(=O)C(C(C)C)NC(=O)C(CC(C)C)N(C)C(=O)CN(C)C1=O (centres unmarked) [Compound 40A-o] | 1000 to 100000 nM |  |  |
| CCC1NC(=O)C(C2OC(SCc3cc(Cl)c(Cl)cc3Cl)CC2C)N(C)C(=O)C(C(C)C)N(C)C(=O)C(CC(C)C)N(C)C(=O)C(CC(C)C)N(C)C(=O)C(C)NC(=O)C(C)NC(=O)C(CC(C)C)N(C)C(=O)C(C(C)C)NC(=O)C(CC(C)C)N(C)C(=O)CN(C)C1=O (centres unmarked) [Compound 104-s] | 1000 to 100000 nM |  |  |
| CCC1NC(=O)C(C2OC(Sc3cccc(N(C)CC)c3)CC2C)N(C)C(=O)C(C(C)C)N(C)C(=O)C(CC(C)C)N(C)C(=O)C(CC(C)C)N(C)C(=O)C(C)NC(=O)C(C)NC(=O)C(CC(C)C)N(C)C(=O)C(C(C)C)NC(=O)C(CC(C)C)N(C)C(=O)CN(C)C1=O [Compound 49A, [2-((2R,3R)-5-(3-(ethyl(methyl)amino)phenylthio)-3-methyltetrahydrofuran-2-yl)-2-(methylamino)acetic acid]^1-cyclosporin A] |  | 1 to 1000 nM |  |

Reference: patent US10961231B2, “NTCP inhibitors” (National Institute of Biological Sciences, Beijing, priority 2018, dated 2021)
